# From patent US20170360780A1, “PHARMACEUTICAL COMPOSITION COMPRISING BICYCLIC NITROGEN-CONTAINING AROMATIC HETEROCYCLIC AMIDE COMPOUND AS ACTIVE INGREDIENT” (Astellas Pharma Inc., priority 2014, published 2017)
# Assays:
# KMS-12-BM cells [1] = assay: Test Example 6: combination use with lenalidomide, nude mice bearing KMS-12-BM tumors; assay type: in vivo, human; details: for Anti-tumor effect of combination use with lenalidomide versus single administration: mice bearing tumors of human myeloma, combination use of lenalidomide and compound; for Rate of tumor regression / Inhibition rate of tumor growth: KMS-12-BM, nude mice, 14 days, next day of final administration
# Method: KMS-12-BM cells derived from human myeloma were prepared at 5×10^7 cells/mL of a mixed solution of PBS and Matrigel (registered trademark) in 1:1 ratio, and 0.1 mL was implanted to CAnN.Cg-Foxn1^nu/CrlCrlj mice (4- to 5-week-old male nude mice, Charles River Laboratories Japan, Inc.) under the skin on the back (5×10^6 cells/head). Dividing into groups by the tumor volume was performed when tumor cells were engrafted under the skin and the average tumor volume exceeded approximately 200 mm^3. […] The test compound dissolved in 6% cyclodextrin aqueous solution was orally administered by the dosage of 8 mg/kg or 1 mg/kg once a day for 14 days continuously. Lenalidomide (MedChemExpress.) was suspended in 6% cyclodextrin aqueous solution and was orally administered by the dosage of 100 mg/kg once a day for 14 days continuously. The inhibition rate of tumor growth and the rate of tumor regression in each group on the next day of the final administration were calculated by using the formula below.
# (§1) [Tumor volume (mm^3)]=[major axis of tumor (mm)]×[minor axis of tumor (mm)]^2×0.5
# (§2) Inhibition rate of tumor growth (%)=(1−average of tumor volume growth in each group/average of tumor volume growth in control group)×100
# Rate of tumor regression (%)=(1−average tumor volume in each group on measuring day/average tumor volume in each group when starting administration)×100
# The inhibition rate of tumor growth and the rate of tumor regression in each group on the next day of the final administration is shown in Table 6.
# RPMI 8226 cells [2] = assay: Test Example 4: anti-tumor test on SCID mice bearing RPMI 8226 human myeloma tumors; assay type: in vivo; details: RPMI 8226, SCID mice, 18 days, next day of final administration
# Description: (§3) KMS-12-BM cells and RPMI 8226 cells which are derived from human myeloma were respectively purchased from JCRB cell bank (National Institutes of Biochemical Innovation, Health and Nutrition), and ATCC. KMS-12-BM cells were implanted to CAnN.Cg-Foxn1^nu/CrlCrlj mice (4- to 5-week-old male nude mice, Charles River Laboratories Japan, Inc.), and RPMI 8226 cells to CB17/Icr-Prkdc^scid/CrlCrlj mice (4- to 5-week-old male SCID mice, Charles River Laboratories Japan, Inc.), respectively. Each of tumor cells were prepared at 5×10^7 cells/mL of a mixed solution of PBS and Matrigel (registered trademark) in 1:1 ratio, and 0.1 mL was implanted to the mice under the skin on the back (5×10^6 cells/head). Dividing into groups by the tumor volume was performed when tumor cells were engrafted under the skin and the average tumor volume exceeded approximately 150 mm^3 (5 mice for each group). The test compound dissolved in 6% cyclodextrin aqueous solution (Sigma-Aldrich Co.) was orally administered by the dosage of 8 mg/kg or 1 mg/kg once a day. 6% Cyclodextrin aqueous solution was also orally administered for the solvent group (control group) once a day. Oral administration was performed continuously for 17 days for KMS-12-BM cells, and 18 days for RPMI 8226 cells. The inhibition rate of tumor growth and the rate of tumor regression on the next day of the final administration were calculated by using the formula below.
# as §1, §2
# (§4) Rate of tumor regression (%)=(1−average tumor volume in each group on measuring day/average tumor volume in each group when dividing groups)×100
# KMS-12-BM cells [3] = assay: Test Example 4: anti-tumor test on nude mice bearing KMS-12-BM human myeloma tumors; assay type: in vivo; details: 17 days, next day of final administration
# Description: as §3, §1, §2, §4
# RPMI 8226 cells [4] = assay: Test Example 3: anti-tumor test on SCID mice bearing RPMI 8226 human myeloma tumors; assay type: in vivo; details: RPMI 8226, SCID mice, 8 mg/kg oral once a day, 21 days; next day of final administration
# Method: RPMI 8226 cells (purchased) derived from human myeloma were prepared at 5×10^7 cells/mL of a mixed solution of PBS and Matrigel (registered trademark) in 1:1 ratio, and 0.1 mL was implanted to CB17/Icr-Prkdc^scid/CrlCrlj mice (5-week-old male SCID mice, Charles River Laboratories Japan, Inc.) under the skin on the back (5×10^6 cells/head). Dividing into groups by the tumor volume was performed when tumor cells were engrafted and the average tumor volume exceeded approximately 150 mm^3 (5 mice for each group). The test compound dissolved in 6% cyclodextrin aqueous solution was orally administered by the dosage of 8 mg/kg once a day for 21 days continuously. 6% Cyclodextrin aqueous solution was orally administered for a solvent group (control group) once a day.
# (§5) The body weight and the tumor diameter were measured twice a week, and the anti-tumor effect and the effect on the body weight were examined. For calculation of the tumor volume, the formula below was used.
# as §1
# The inhibition rate of tumor growth and the rate of tumor regression were calculated from the average value of the tumor volume according to the formula below.
# Inhibition rate of tumor growth (%)=(1−average of tumor volume growth in each group/average of tumor volume growth in control group)×100 […]
# OPM-2 cells = assay: Test Example 3: anti-tumor test on nude mice bearing OPM-2 human myeloma tumors; assay type: in vivo; details: OPM-2, nude mice, 8 mg/kg oral once a day, 7 days; next day of final administration
# Method: (§6) KMS-12-BM cells (purchased) or OPM-2 cells (purchased) derived from human myeloma were prepared at 5×10^7 cells/mL of a mixed solution of PBS and Matrigel (registered trademark) in 1:1 ratio, and 0.1 mL was implanted to CAnN.Cg-Foxn1^nu/CrlCrlj mice (4-week-old male nude mice, Charles River Laboratories Japan, Inc.) under the skin on the back (5×10^6 cells/head). Dividing into groups by the tumor volume was performed when tumor cells were engrafted and the average tumor volume exceeded approximately 300 mm^3 (5 mice for each group). The test compound dissolved in 6% cyclodextrin aqueous solution (Sigma-Aldrich Co.) was orally administered by the dosage of 8 mg/kg once a day for 21 days in the test using KMS-12-BM cells, and for 7 days in the test using OPM-2 cells, respectively. 6% Cyclodextrin aqueous solution was orally administered for a solvent group (control group) once a day.
# as §5, §1
# (§7) The inhibition rate of tumor growth and the rate of tumor regression were calculated from the average value of the tumor volume according to the formula below. […]
# KMS-12-BM cells [5] = assay: Test Example 5: combination use with lenalidomide, nude mice bearing KMS-12-BM tumors; assay type: in vivo, human; details: 27 days, next day of final administration
# Method: KMS-12-BM cells derived from human myeloma were prepared at 2.8×10^7 cells/mL of a mixed solution of PBS and Matrigel (registered trademark) in 1:1 ratio, and 0.1 mL was implanted to CAnN.Cg-Foxn1^nu/CrlCrlj mice (4-week-old male nude mice, Charles River Laboratories Japan, Inc.) under the skin on the back (2.8×10^6 cells/head). Dividing into groups by the tumor volume was performed when tumor cells were engrafted and the average tumor volume exceeded approximately 200 mm^3, and 5 mice were set for each group. The test compound dissolved in 6% cyclodextrin aqueous solution was orally administered by the dosage of 2 mg/kg once a day for 27 days. Lenalidomide (MedChemExpress.) was suspended in 6% cyclodextrin aqueous solution and was orally administered by the dosage of 100 mg/kg once a day for 27 days. The dosage of 2 mg/kg of the test compound and 100 mg/kg of lenalidomide were orally administered for a combination administered group once a day, respectively. 6% Cyclodextrin aqueous solution was orally administered for the solvent group (control group) once a day. The body weight and the tumor diameter were measured twice a week, and the anti-tumor effect and the effect on the body weight were examined. For calculation of the tumor volume, the formula below was used.
# as §1
# The inhibition rate of tumor growth and the rate of tumor regression were calculated from the average value of the average tumor volume according to the formula below.
# as §2, §4
# KMS-12-BM cells [6] = assay: Test Example 3: anti-tumor test on nude mice bearing KMS-12-BM human myeloma tumors; assay type: in vivo; details: 8 mg/kg oral once a day, 21 days, next day of final administration
# Method: as §6, §5, §1, §7
# [7] = test compound 1 mg/kg + lenalidomide 100 mg/kg oral once a day
# [8] = test compound 1 mg/kg + solvent, oral once a day
# [9] = test compound 8 mg/kg + lenalidomide 100 mg/kg oral once a day
# [10] = test compound 8 mg/kg + solvent, oral once a day
smiles,measurement,setting,value
"COc1cnc(CN2CCC(c3ccc4c(c3)cc(C(=O)N3CCN(Cc5ccc(C#N)cc5)CC3)n4C)CC2)cn1 [Compound D, 4-({4-[(5-{1-[(5-methoxypyrazin-2-yl)methyl]piperidin-4-yl}-1-methyl-1H-indol-2-yl)carbonyl]piperazin-1-yl}methyl)benzonitrile]",Anti-tumor effect of combination use with lenalidomide versus single administration,KMS-12-BM cells [1],stronger anti-tumor effect than each single administration thereof
"CCOc1cnc(CN2CCC(c3ccc4cc(C(=O)N5CCN(Cc6ccc(C#N)cc6)CC5)n(C)c4c3)CC2)cn1 [Compound C1, 4-({4-[(6-{1-[(5-ethoxypyrazin-2-yl)methyl]piperidin-4-yl}-1-methyl-1H-indol-2-yl)carbonyl]piperazin-1-yl}methyl)benzonitrile]",Rate of tumor regression,KMS-12-BM cells [1]; [7],64% regression
same,Rate of tumor regression,KMS-12-BM cells [1]; [8],40% regression
same,Rate of tumor regression,RPMI 8226 cells [2]; 1 mg/kg oral once a day,25% regression
same,Rate of tumor regression,KMS-12-BM cells [3]; 1 mg/kg oral once a day,68% regression
"COc1ccc(CN2CCC(c3ccc4[nH]c(C(=O)N5CCN(Cc6ccc(C(F)(F)F)cc6)CC5)nc4c3)CC2)cn1 [Compound A, (5-{1-[(6-methoxypyridin-3-yl)methyl]piperidin-4-yl}-1H-benzimidazol-2-yl) {4-[4-(trifluoromethyl)benzyl]piperazin-1-yl}methanone]",Anti-tumor effect of combination use with lenalidomide versus single administration,KMS-12-BM cells [1],stronger anti-tumor effect than each single administration thereof
"COc1cnc(CN2CCC(c3ccc4[nH]c(C(=O)N5CCN(Cc6ccc(C(F)(F)F)cc6)CC5)nc4c3)CC2)cn1 [Compound B, (5-{1-[(5-methoxypyrazin-2-yl)methyl]piperidin-4-yl}-1H-benzimidazol-2-yl){4-[4-(trifluoromethyl)benzyl]piperazin-1-yl}methanone]",Anti-tumor effect of combination use with lenalidomide versus single administration,KMS-12-BM cells [1],stronger anti-tumor effect than each single administration thereof
"COc1ccc(CN2CCC(c3ccc4[nH]c(C(=O)N5CCN(Cc6ccc(C(F)(F)F)cc6)CC5)nc4c3)CC2)cn1 [Compound A1, (5-{1-[(6-methoxypyridin-3-yl)methyl]piperidin-4-yl}-1H-benzimidazol-2-yl){4-[4-(trifluoromethyl)benzyl]piperazin-1-yl}methanone]",Rate of tumor regression,KMS-12-BM cells [1]; [9],39% regression
same,Inhibition rate of tumor growth,KMS-12-BM cells [1]; [10],100% inhibition
same,Inhibition rate of tumor growth,RPMI 8226 cells [2]; 8 mg/kg oral once a day,99% inhibition
same,Inhibition rate of tumor growth,RPMI 8226 cells [4],97% inhibition
same,Rate of tumor regression,OPM-2 cells,17% regression
same,Rate of tumor regression,KMS-12-BM cells [5]; test compound 2 mg/kg + lenalidomide 100 mg/kg oral once a day,100% regression
same,Rate of tumor regression,KMS-12-BM cells [5]; test compound alone 2 mg/kg oral once a day,24% regression
same,Rate of tumor regression,KMS-12-BM cells [6],100% regression
same,Inhibition rate of tumor growth,KMS-12-BM cells [3]; 8 mg/kg oral once a day,99% inhibition
"Nc1cccc2c1CN(C1CCC(=O)NC1=O)C2=O (stereo not drawn) [Lenalidomide, lenalidomide, reference compound]",Inhibition rate of tumor growth,KMS-12-BM cells [1]; solvent + lenalidomide 100 mg/kg oral once a day,21% inhibition
same,Inhibition rate of tumor growth,KMS-12-BM cells [5]; lenalidomide alone 100 mg/kg oral once a day,53% inhibition
"CCOc1cnc(CN2CCC(c3ccc4cc(C(=O)N5CCN(Cc6ccc(C#N)cc6)CC5)n(C)c4c3)CC2)cn1 [Compound C, 4-({4-[(6-{1-[(5-ethoxypyrazin-2-yl)methyl]piperidin-4-yl}-1-methyl-1H-indol-2-yl)carbonyl]piperazin-1-yl}methyl)benzonitrile]",Anti-tumor effect of combination use with lenalidomide versus single administration,KMS-12-BM cells [1],stronger anti-tumor effect than each single administration thereof
"COc1cnc(CN2CCC(c3ccc4[nH]c(C(=O)N5CCN(Cc6ccc(C(F)(F)F)cc6)CC5)nc4c3)CC2)cn1 [Compound B1, (5-{1-[(5-methoxypyrazin-2-yl)methyl]piperidin-4-yl}-1H-benzimidazol-2-yl){4-[4-(trifluoromethyl)benzyl]piperazin-1-yl}methanone]",Rate of tumor regression,KMS-12-BM cells [1]; [9],42% regression
same,Rate of tumor regression,KMS-12-BM cells [1]; [10],20% regression
same,Rate of tumor regression,RPMI 8226 cells [2]; 8 mg/kg oral once a day,4% regression
same,Rate of tumor regression,KMS-12-BM cells [3]; 8 mg/kg oral once a day,6% regression
"COc1cnc(CN2CCC(c3ccc4c(c3)cc(C(=O)N3CCN(Cc5ccc(C#N)cc5)CC3)n4C)CC2)cn1 [Compound D1, 4-({4-[(5-{1-[(5-methoxypyrazin-2-yl)methyl]piperidin-4-yl}-1-methyl-1H-indol-2-yl)carbonyl]piperazin-1-yl}methyl)benzonitrile]",Inhibition rate of tumor growth,KMS-12-BM cells [1]; [7],74% inhibition
same,Inhibition rate of tumor growth,KMS-12-BM cells [1]; [8],61% inhibition
same,Inhibition rate of tumor growth,RPMI 8226 cells [2]; 1 mg/kg oral once a day,75% inhibition
same,Inhibition rate of tumor growth,KMS-12-BM cells [3]; 1 mg/kg oral once a day,71% inhibition
